# Assay results reported in paper PMC2661369, “The Signal Peptide of Staphylococcus aureus Panton Valentine Leukocidin LukS Component Mediates Increased Adhesion to Heparan Sulfates” (PLoS ONE, 2009).
# Where no end group is shown, it is not given here.
# B1: heparinase III: heparinase III (Sigma) (protein, UniProt Q59289 25-659, looked up)
# Heparin-sulfate lyase: QSSSITRKDFDHINLEYSGLEKVNKAVAAGNYDDAAKALLAYYREKSKAREPDFSNAEKPADIRQPIDKVTREMADKALVHQFQPHKGYGYFDYGKDINWQMWPVKDNEVRWQLHRVKWWQAMALVYHATGDEKYAREWVYQYSDWARKNPLGLSQDNDKFVWRPLEVSDRVQSLPPTFSLFVNSPAFTPAFLMEFLNSYHQQADYLSTHYAEQGNHRLFEAQRNLFAGVSFPEFKDSPRWRQTGISVLNTEIKKQVYADGMQFELSPIYHVAAIDIFLKAYGSAKRVNLEKEFPQSYVQTVENMIMALISISLPDYNTPMFGDSWITDKNFRMAQFASWARVFPANQAIKYFATDGKQGKAPNFLSKALSNAGFYTFRSGWDKNATVMVLKASPPGEFHAQPDNGTFELFIKGRNFTPDAGVFVYSGDEAIMKLRNWYRQTRIHSTLTLDNQNMVITKARQNKWETGNNLDVLTYTNPSYPNLDHQRSVLFINKKYFLVIDRAIGEATGNLGVHWQLKEDSNPVFDKTKNRVYTTYRDGNNLMIQSLNADRTSLNEEEGKVSYVYNKELKRPAFVFEKPKKNAGTQNFVSIVYPYDGQKAPEISIRENKGNDFEKGKLNLTLTINGKQQLVLVP
# Legend:
# [1] = type: physicochemical; conditions: purified synthetic peptide
# Text: To gain insight into the structure and lipotropic properties of the LukS-PV and LukF-PV signal peptides, the solubility and conformation of the corresponding purified synthetic peptides were examined under various stabilizing conditions by using either cosolvents (TFE: water mixtures, SDS) that are very useful tools for probing the propensity of peptides for secondary structure formation ([11], [12], and references therein), or membrane mimetic media including lysolipid (lysophosphatidyl choline, LPC), and detergents (DM, LPC and DPC). […] TFE is known to solubilize hydrophobic peptides as monomers and to stabilize the folding of peptidic sequences with an intrinsic propensity to adopt an α-helical structure. […] Various CD deconvolution methods used indicate a predominant α-helix content ranging from 64 to 77% in SDS and in TFE 50% for LukS-PV signal peptide, but only of about 40% for LukF-PV signal peptide in both media. […] These findings are consistent with the computer prediction that this peptide could easily aggregate (score of 0.8 with Zyggregator [13]). […] Taken together, these analyses indicate that after its processing by the signal peptidase, the LukS-PV signal peptide could readily leave the membrane translocon context and incorporate to the cytosolic or the extracellular aqueous environment.
# ECM components = type: cell-based, Staphylococcus aureus; conditions: constructs expressed in LUG960 (RN6390 in b7), P-luk-PV promoter; ECM proteins 5 µg/mL, absorbance at 540 nm
# [2] = test system: Panton Valentine Leukocidin; assay: Quantification of Panton Valentine Leukocidin production by ELISA; type: cell-based, Staphylococcus aureus; conditions: supernatant after 24 h of culture, mean±SD, in duplicate
# Procedure: The level of PVL production in the supernatant after 24 h of staphylococcal culture was determined in duplicate by using an ELISA method as described previously.
# The level of PVL production in the supernatant after 24h of culture was determined in duplicate by using an ELISA method as described previously.
# matrix protein = assay: Effect of heparinase III digestion of ECM proteins on bacterial adhesion; type: cell-based, Staphylococcus aureus; conditions: increasing concentrations added to coated wells, 1 h at room temperature, before adhesion assay
# Procedure: Figure 4 Inhibition of adhesion to collagen IV by heparinase. Isogenic strains of Staphylococcus aureus examined for their binding capacity (Y-axis, absorbance reading at 540 nm) to collagen IV (Sigma) coated on 96-well plates, at concentrations of 5 µg/mL. Heparinase III was added at increasing concentrations (X-axis) to collagen IV (Sigma) before the adhesion assay. Parental (LUG960) indicates the genetic background in which the genetic modifications were made; LukS-PV SP, parental carrying a plasmid encoding the LukS-PV signal peptide. The vertical lines indicate the standard deviations.
# To test the effect of digestion of ECM proteins with heparinase, increasing concentrations of heparinase III (Sigma) were added to laminin, elastin and type V, IV, I collagens (Sigma) coated wells, and incubated for 1 h at room temperature. After treatment, the wells were washed with 200 µL PBS 3 times, blocked with 200 µL of 0.2% BSA in PBS at 4°C for 2 h, and used in the adhesion assay.
molecule,measurement,setting,value
MVKKRLLAATLSLGIITPIATSFHESKA [LukS-PV signal peptide],solubility in water,[1],largely soluble in water
LukS-PV ΔSP: plasmid encoding LukS-PV without signal peptide (MVKKRLLAATLSLGIITPIATSFHESKA),adhesion phenotype of expressing strain,ECM components,basal level of attachment
same,PVL levels,[2],2.39 ± 0.04 µg/mL
B1,effect of heparinase on bacterial adhesion,matrix protein,the bacterial adhesion decreased in a dose-dependent manner
